Results as given in publication PMC11648915, “Identification and development of TRPM4 antagonists to counteract neuronal excitotoxicity” (iScience, 2024).
Read-outs that look alike come from different tables or passages of the source.

Columns and labels:
Hepatocyte clearance = assay type: in vitro ADME; details: cryopreserved hepatocytes, 120 min, read-out: Hep. clearance (converted)
Protocol: Cryopreserved hepatocytes were exposed to test Compounds at a concentration of 1 μM for 120 minutes. Samples were collected at various time points, and percent remaining of test compound was determined using mass spectrometry (LC-MS/MS) to calculate hepatic clearance rate (L/h/kg).

[1] = Microsome clearance (mouse); assay type: in vitro ADME; details: mouse liver microsomes, 45 min, NADPH
Protocol: (§1) Human or mouse liver microsomes were incubated with the test compound at a concentration of 1 μM for 45 min in the presence of cofactor (NADPH in excess). Samples were collected at various time points, and % remaining of test compound was determined using mass spectrometry (LC-MS/MS) to calculate hepatic clearance rate (L/h/kg).

[2] = Microsome clearance (human); assay type: in vitro ADME; details: human liver microsomes, 45 min, NADPH, read-out: Microsomes (h) clearance (converted)
Protocol: as §1

CYP 1A2 = molecular target: T1, CYP 1A2 (Homo sapiens, UniProt P05177); assay: CYP inhibition assay 1A2; assay type: in vitro ADME
T1 construct: purchased BD Gentest
T1 sequence (P05177 1-516): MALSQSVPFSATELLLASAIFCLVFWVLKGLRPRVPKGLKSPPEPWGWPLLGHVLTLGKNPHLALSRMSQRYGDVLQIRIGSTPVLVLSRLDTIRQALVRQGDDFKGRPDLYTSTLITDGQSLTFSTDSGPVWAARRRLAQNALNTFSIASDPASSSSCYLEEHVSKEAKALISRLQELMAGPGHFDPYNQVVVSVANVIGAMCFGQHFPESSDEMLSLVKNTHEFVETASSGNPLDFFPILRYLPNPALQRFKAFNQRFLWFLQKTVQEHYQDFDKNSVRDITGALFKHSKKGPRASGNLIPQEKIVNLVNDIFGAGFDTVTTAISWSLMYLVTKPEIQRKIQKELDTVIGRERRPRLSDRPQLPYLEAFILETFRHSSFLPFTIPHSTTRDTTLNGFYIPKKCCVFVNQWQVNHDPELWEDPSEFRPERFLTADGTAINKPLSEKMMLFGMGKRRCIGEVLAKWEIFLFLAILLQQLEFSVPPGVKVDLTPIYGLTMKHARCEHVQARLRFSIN
Protocol: The half-maximal inhibitory concentration (IC50) for cytochrome P450 (CYP) enzymes was determined using an in vitro enzyme inhibition assay. Recombinant CYP enzymes or human liver microsomes from BD Gentest, in 0.1 M phosphate buffer pH 7.4, containing native CYP enzymes were incubated with the test compound at various concentrations (1, 3, 10 and 30 μM) and containing 0.5% DMSO and 0.1% BSA final concentrations. 1 mM of NADPH cofactor was added and the reaction was started by a rapid increase of temperature until 37°C.

[3] = system: primary mouse neuronal cultures; assay: Glutamate-induced excitotoxicity assay (RealTime-Glo viability); assay type: cell-based; details: 5 μM, primary mouse neuronal cultures
Protocol: To evaluate the in vitro efficacy of our developed compounds, we employed primary mouse neuronal cultures (PNCs) and conducted glutamate-induced excitotoxicity assays. Cultures were pre-treated with respective Series 1 and Series 3 compounds before glutamate exposure, and neuronal viability was assessed 15 h post-stimulation with glutamate.
Figure 3 Neuroprotective in vitro evaluation and in vivo pharmacokinetics (A) In vitro evaluation of compound activity on glutamate-induced excitotoxicity in mature primary neuronal cultures. Neuronal cultures were treated with 5 μM of the specified compound or vehicle control 5 h prior to glutamate stimulation, assessing compound rescue activity and toxicity relative to minimal (Vehicle +0 μM Glu) and maximal (Vehicle +50 μM Glu) excitotoxicity. Time course of a representative compound with virtual endpoint at 15 h post stimulation and assay window definition (left). Toxicity of compound treated cultures with and without glutamate stimulation (right). Data are represented as mean and 95% confidence interval; n ≥ 4; ∗p < 0.05, ∗∗p < 0.01, ∗∗∗p < 0.001; One-sample Wilcoxon signed-rank test. […] Mitochondrial membrane potential was measured by the mean fluorescence intensity of TMRE normalized to MitoTracker. Data are represented as mean ± SEM; n = 5; paired t-test. (C) In vivo pharmacokinetics of four selected compounds. Time course of compound concentration in the brain, heart, and plasma after a single dose via intraperitoneal (i.p.) or intravenous (i.v.) application. Data are represented as mean ± SEM. Half-life estimates by non-compartmental analysis are shown as vertical line and IC50 value as dashed horizontal line. (D) Compound concentration in the brain relative to respective IC50 concentrations after a single dose via intra-peritoneal or intra-venous routes. Also see Figure S6.
Excitotoxicity assays were performed using primary mouse neuronal cultures between 14 and 17 days in vitro (DIV). Cell viability was measured using RealTime-Glo MT Cell Viability Assay (Promega, catalog no. G9711) according to the manufacture protocol. Compounds were co-administered with RealTime-Glo reagents, and luciferase measurements were conducted using the Tecan-Spark M10 microplate reader with environmental control set to 37°C and 5% CO2. Neuronal cultures were stimulated with either glutamate or vehicle five hours after compound application and monitored for an additional 20 hours. To adjust for inter-well variability, arbitrary light units were normalized to a steady signal prior to glutamate addition for each well. Toxicity was calculated relative to the minimal cell viability at 15 hours post glutamate stimulation and cell viability of the PBS vehicle control.

[4] = Caco-2 permeability assay; assay type: in vitro ADME; details: human, direction not given
Protocol: Caco-2 permeability was evaluated using a cell-based assay with Caco-2 cells cultured on permeable membrane inserts. The test compound was added at 10 μM to the apical (donor) compartment, and samples were collected from the basolateral (receiver) compartment at 120 min. The test compound was also added at 10 μM to the basolateral (donor) compartment, and samples were collected from the apical (receiver) compartment at 120 min. The amount of the compound in both compartments was measured using mass spectrometry (LC-MS/MS). The permeability coefficient (Papp, nm/s) apical to basolateral and basolateral to apical, and an efflux ratio were calculated.

[5] = Parallel Artificial Membrane Permeability Assay (PAMPA); assay type: in vitro ADME; details: pH not given
Protocol: Parallel Artificial Membrane Permeability Assay (PAMPA) was performed using artificial lipid membrane layers to assess passive permeability of the test compound. Test compounds were diluted to 200 μM in system buffer at pH 5.0, 6.2 and 7.4. The solutions were filtered and 150 μL transferred to a High Sensitivity 96 well UV plate. This was analysed by UV as the reference plate. A 200 μL sample of the 200 μM solution was transferred to the ‘donor’ plate of the PAMPA pIon sandwich plate system. 200 μL of acceptor sink buffer was transferred to the ‘acceptor’ plate which had been previously treated with GIT-O lipid solution across the well filter. Donor and acceptor plates were sandwiched and kept in a humid environment at room temperature for 16 hours. On completion of the incubation the donor and acceptor plates were separated. 150 μL of solution was transferred from each of the donor and acceptor PAMPA sandwich plates into High Sensitivity 96 well UV plates for analysis by UV. at different time points. The concentration of the compound in the acceptor compartment was determined using mass spectrometry. The permeability coefficient (Papp) was calculated based on the rate of appearance of the compound in the acceptor compartment (nm/s).

| CLint scaled at 1 μM [1] | CLint scaled at 1 μM [2] | Papp at 120 min, 10 μM ([4]; read-out: Caco-2 perm.) | Papp at 120 min, 10 μM ([4]; heading: Caco-2 perm.) | Papp at 16 h, 200 μM ([5]; PAMPA, read-out: PAMPA perm.) | Compound | CLint scaled at 1 μM (Hepatocyte clearance) | IC50 (CYP 1A2) | Compound toxicity in neuronal cultures [3] | PAMPA perm. [5] |
| --- | --- | --- | --- | --- | --- | --- | --- | --- | --- |
| > 900 mL/min/kg | 558 mL/min/kg | – | – | – | c1csc(-c2ccccc2NCc2nc3ccccc3o2)c1 [CMP355] | 293 mL/min/kg | 1.3 µM | observed toxicity | – |
| > 900 mL/min/kg | 600 mL/min/kg | 52 ×10⁻⁶ cm/s | – | – | Cc1ccsc1-c1ccccc1NCc1nc2ccccc2o1 [CMP369] | 347 mL/min/kg | – | observed toxicity | – |
| 900 mL/min/kg | 243 mL/min/kg | – | 21 ×10⁻⁶ cm/s | 37.4 ×10⁻⁶ cm/s | Nc1ccccc1-c1ccccc1NCc1nc2ccccc2o1 [CMP457] | – | – | observed toxicity | – |

| Compound | CLint scaled at 1 μM [1] | CLint scaled at 1 μM [2] | Papp at 120 min, 10 μM ([4]; read-out: Caco-2 perm.) | Papp at 120 min, 10 μM ([4]; heading: Caco-2 perm.) | Papp at 16 h, 200 μM ([5]; PAMPA, read-out: PAMPA perm.) | CLint scaled at 1 μM (Hepatocyte clearance) | IC50 (CYP 1A2) | Compound toxicity in neuronal cultures [3] | PAMPA perm. [5] |
| --- | --- | --- | --- | --- | --- | --- | --- | --- | --- |
| Fc1ccccc1-c1ccccc1NCc1nc2ccccc2o1 [CMP353] | > 900 mL/min/kg | 605 mL/min/kg | – | – | – | 562 mL/min/kg | 1 µM | observed toxicity | low sensitivity |
| Fc1cccc(-c2ccccc2NCc2nc3ccccc3o2)c1 [CMP343] | > 900 mL/min/kg | 570 mL/min/kg | – | – | – | 322 mL/min/kg | – | – | – |
